Data published in patent publication US7402314B2, “In vivo activation of tumor-specific cytotoxic T cells” (The Scripps Research Institute, priority 1995, dated 2008).
Where “and” joins values, the source holds several entries; their conditions need not be identical. Equal entries are not always repeated.

Key:
A2.1/K^b-Tg mice = assay: Peptide priming of A2.1/K^b-Tg mice, lytic activity of peptide-specific CTL; type: in vivo; parameters: Lytic Activity by Peptide-Specific CTL After Priming of A2.1/K^b-Tg Mice [Specific ^51Cr release (%)]: concentration or dose not given beside the values; details: for Lytic Activity by Peptide-Specific CTL After Priming of A2.1/K^b-Tg Mice [Specific ^51Cr release (%)]: E:T ratio of 60:1, peptide-pulsed T2A2/K^b targets, highest of at least three individual mice; for A2.1/K^b-restricted peptide-specific CTL response of A2.1/K^b-Tg mice (in words): mouse, in vivo
HLA-A2.1 = HLA-A2.1 (Homo sapiens, UniProt P04439, D140Y/D185E/D98H/E176V/E277Q/G131W/G231S/I119V/I121R/I166T/I218V/L300P/L318F/N151K/N90K/P208A/P217A/Q86G/Q94H/R138H/R169H/T345S); assay: Competition assay of peptide binding to HLA-A2.1 (inhibition of M1 58-66 binding, clone 12 lysis of EA2 targets)
CASKI = assay: Cytotoxicity assay, killing of tumors (Table 7); type: cell-based, human
Method: (§1) One hundred and six (106) target cells were incubated at 37° C. with […] of sodium ^51Cr chromate for 90 minutes in the presence or absence of specific peptide. Cells were washed three times and resuspended in 5% RPMI. For the assay, 104 ^51Cr-labeled target cells were incubated with different concentrations of effector cells in a final volume of […] in U-bottomed 96-well plates. Supernatants were removed after 4-7 hrs at 37° C., and the percent specific lysis was determined by the following formula: […]
(§2) Tumor cells were preincubated for 24 hours prior to the assay in media supplemented with γ-interferon (γ-IFN, 20 ng/ml) plus tumor necrosis factor-α (TNF-α, 3 ng/ml). It is known that such pretreatment of tumor cells increases the expression of MHC I and adhesion molecules such as ICAM I on the surface of the cell thus enhancing their sensitivity to lysis by CTL. (See, e.g., Fisk, et al., Lympho. & Cylokine Res. 13: 125-131 (1994); Fady, et al., Cancer Immunol. Immunother. 37: 329-336 (1993).)

Hep-G2 = assay: Cytotoxicity assay, killing of tumors (Table 7); type: cell-based, human
Method: as §1, §2

JY = assay: Cytotoxicity assay, killing of tumors (Table 7); type: cell-based, human
Method: as §1, §2

LG-2 = assay: Cytotoxicity assay, killing of tumors (Table 7); type: cell-based, human
Method: as §1, §2

MALME-3M = assay: Cytotoxicity assay, killing of tumors (Table 7); type: cell-based, human
Method: as §1, §2

MCF-7 = assay: Cytotoxicity assay, killing of tumors (Table 7); type: cell-based, human
Method: as §1, §2

MDA.MB435 = assay: Cytotoxicity assay, killing of tumors (Table 7); type: cell-based, human
Method: as §1, §2

OVCAR-5 = assay: Cytotoxicity assay, killing of tumors (Table 7); type: cell-based, human
Method: as §1, §2

SAOS.175 = assay: Cytotoxicity assay, killing of tumors (Table 7); type: cell-based, human
Method: as §1, §2

SKMEL-5 = assay: Cytotoxicity assay, killing of tumors (Table 7); type: cell-based, human
Method: as §1, §2

ST486 = assay: Cytotoxicity assay, killing of tumors (Table 7); type: cell-based, human
Method: as §1, §2

SV80 = assay: Cytotoxicity assay, killing of tumors (Table 7); type: cell-based, human
Method: as §1, §2

SW480 = assay: Cytotoxicity assay, killing of tumors (Table 7); type: cell-based, human
Method: as §1, §2

T98G = assay: Cytotoxicity assay, killing of tumors (Table 7); type: cell-based, human
Method: as §1, §2

U2-OS = assay: Cytotoxicity assay, killing of tumors (Table 7); type: cell-based, human
Method: as §1, §2

U87G = assay: Cytotoxicity assay, killing of tumors (Table 7); type: cell-based, human
Method: as §1, §2

Saos-2/175 = assay: 5-hour ^51Cr release assay, endogenously synthesized p53 epitopes (Example 4); type: cell-based, human; details: relative to p53-deficient Saos-2

Row | Sequence | Lytic Activity by Peptide-Specific CTL After Priming of A2.1/K^b-Tg Mice [Specific ^51Cr release (%)] (A2.1/K^b-Tg mice) [%] | A2.1/K^b-restricted peptide-specific CTL response of A2.1/K^b-Tg mice (in words) (A2.1/K^b-Tg mice) | other results
1 | AAPPVAPA [hu-wt-p53 69-76] | 0 | – | –
2 | GLAPPQHLI [hu-wt-p53 187-195] | 1 | lack of CTL responsiveness | A2.1-binding activity / affinity for the presenting MHC class I molecule (in words) (HLA-A2.1): high
3 | AAPTPAAPA [hu-wt-p53 78-86] | 0 | – | –
4 | KLVGKLNWA [HIV-9K, reference compound] | – | – | Killing of Tumors Expressing Her-2/neu (percent specific lysis) (CASKI): 8% and 11%; Killing of Tumors Expressing Her-2/neu (percent specific lysis) (Hep-G2): 1% and 8%; Killing of Tumors Expressing Her-2/neu (percent specific lysis) (JY): 2% and 1%; Killing of Tumors Expressing Her-2/neu (percent specific lysis) (LG-2): 1%; Killing of Tumors Expressing Her-2/neu (percent specific lysis) (MALME-3M): 2% and 1%; Killing of Tumors Expressing Her-2/neu (percent specific lysis) (MCF-7): 3% and 7%; Killing of Tumors Expressing Her-2/neu (percent specific lysis) (MDA.MB435): 4% and 3%; Killing of Tumors Expressing Her-2/neu (percent specific lysis) (OVCAR-5): 10% and 12%; Killing of Tumors Expressing Her-2/neu (percent specific lysis) (SAOS.175): 18% and 11%; Killing of Tumors Expressing Her-2/neu (percent specific lysis) (SKMEL-5): 5% and 4%; Killing of Tumors Expressing Her-2/neu (percent specific lysis) (ST486): 1%; Killing of Tumors Expressing Her-2/neu (percent specific lysis) (SV80): 2%; Killing of Tumors Expressing Her-2/neu (percent specific lysis) (SW480): 1% and 4%; Killing of Tumors Expressing Her-2/neu (percent specific lysis) (T98G): 9% and 13%; Killing of Tumors Expressing Her-2/neu (percent specific lysis) (U2-OS): 18% and 24%; Killing of Tumors Expressing Her-2/neu (percent specific lysis) (U87G): 5% and 1%
5 | SVTCTYSPA [hu-wt-p53 121-129] | – | – | A2.1-binding: inhibition of A2.1-binding of M1 (58-66) (%) (HLA-A2.1): 8%
6 | ITLEDSSGNL [hu-wt-p53 255-264] | 3 | lack of CTL responsiveness | A2.1-binding activity / affinity for the presenting MHC class I molecule (in words) (HLA-A2.1): intermediate
7 | LLGRDSFEV [mur-wt-p53 261-269, reference compound] | 10 | No significant response | A2.1-binding activity / affinity for the presenting MHC class I molecule (in words) (HLA-A2.1): highest A2.1-binding activity of all p53 peptides tested
8 | AAPPVAPAPAA [hu-wt-p53 69-79] | 0 | – | –
9 | PLDGEYFTL [hu-wt-p53 322-330] | 0 | lack of CTL responsiveness | A2.1-binding activity / affinity for the presenting MHC class I molecule (in words) (HLA-A2.1): intermediate
10 | NLLGRNSFEV [hu-wt-p53 263-272] | 3 | – | –
11 | VLSPLPSQAM [hu-wt-p53 31-40] | 0 | – | –
12 | RMPEAAPPV [hu-wt-p53 65-73] | 85 | detectable | A2.1-binding activity / affinity for the presenting MHC class I molecule (in words) (HLA-A2.1): high affinity; recognition of Saos-2/175 by CTL from A2.1/K^b-Tg mice specific for the peptide (endogenous processing and presentation) (Saos-2/175): did not lyse Saos-2/175
13 | ALNKMFCQL | 0 | – | –
14 | LMLSPDDIEQ [hu-wt-p53 43-52] | 3 | – | –
15 | DLMLSPDDI [hu-wt-p53 42-50] | 0 | – | –
16 | NTFRHSVVV [hu-wt-p53 210-218] | 6 | – | –
17 | LLPENNVLSPL [hu-wt-p53 25-35] | 47 | detectable | A2.1-binding activity / affinity for the presenting MHC class I molecule (in words) (HLA-A2.1): high affinity; recognition of Saos-2/175 by CTL from A2.1/K^b-Tg mice specific for the peptide (endogenous processing and presentation) (Saos-2/175): did not lyse Saos-2/175
18 | ILKEPVHGV [HIV-1 RT 476-484, reference compound] | – | could mount an A2.1/K^b-restricted CTL response | –
19 | AAPPVAPAPA [hu-wt-p53 69-78] | 0 | – | –
20 | VLSPLPSQA [hu-wt-p53 31-39] | 3 | – | –
21 | VAPAPAAPT [hu-wt-p53 73-81] | 0 | – | –
22 | LLGRNSFEV | 94 | detectable | –
23 | LLPENNVLS [hu-wt-p53 25-33] | 3 | – | –
